For assay [1], the target named is T1, GO (Homo sapiens, UniProt Q9UJM8).
T1 sequence (Q9UJM8 1-370): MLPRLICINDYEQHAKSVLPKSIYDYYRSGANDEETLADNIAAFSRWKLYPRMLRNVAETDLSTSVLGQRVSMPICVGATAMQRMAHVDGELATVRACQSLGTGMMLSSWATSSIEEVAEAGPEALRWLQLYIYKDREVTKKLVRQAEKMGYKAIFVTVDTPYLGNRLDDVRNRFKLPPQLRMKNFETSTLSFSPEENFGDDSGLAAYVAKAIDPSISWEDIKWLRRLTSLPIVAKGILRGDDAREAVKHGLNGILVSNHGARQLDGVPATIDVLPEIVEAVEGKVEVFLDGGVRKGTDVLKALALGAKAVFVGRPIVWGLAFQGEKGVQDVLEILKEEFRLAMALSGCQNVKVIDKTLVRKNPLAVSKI
In words: GO Cellular Assay: CHO-Agt Cells Assay (Assay 3). In kind it is cell-based, Chinese hamster. Set-up: host or cells: CHO cells (A.T.C.C. CCl-61) and engineered CHO-Agt cells (from Fargue/Danpure). To be noted: 100 uM glycolic acid, glyoxylate by LC-MS at 2 hours, read-out: Range of IC50 values calculated from the cellular assays (Assay 3). As to the method: Assay 3: GO Cellular Assay: CHO-Agt Cells Assay
CHO cells (A.T.C.C. number CCl-61) and engineered CHO-Agt cells (provided by Dr. Sonia Fargue and Dr. Christopher J. Danpure, Biochem. J. (2006) 394, 409-416) were used as a screening cellular assay for primary compounds. The cells were seeded in 20,000 cell/well in 96 well plate and cultured at 37-C under O2/CO2 (19:1) in Ham's F12 medium (Invitrogen) supplemented with fetal calf serum (10%, v/v), L-glutamine (2 mM), penicillin (100 units/ml) and streptomycin (100 pug/ml). After overnight culture, the cells were treated with various concentrations of inhibitors in the presence of 100 uM glycolic acid in HEPES buffer, pH7.0 (Sigma-Aldrich, Cat #124737). Culture medium was harvested at 2 hours after treatment for glyoxylate analysis and cell viability was measured by Cell Titer-Glo (Fisher Scientific, Cat #. PR-G7570).
The glyoxylate was quantified using LC-MS method. An aliquot of 120 μL medium was removed from each well and protein precipitated by adding 240 μL IS (100 ng/ml 13C2-glyoxylic acid, Sigma-Aldrich, Cat #G755002). The mixture was vortex-mixed well and centrifuged at 3900 rpm for 15 min, 4° C. 100 μL supernatant was then mixed with 10 μL formic acid and 100 μL 400 μM DNPH (2,4-dinitrophenylhydrazine) (Shanghai Runjie Huaxue Shiji Ltd., Cat #A0000436) and the mixture was shaken for 30 minutes. A 3 μL mixture of reaction mixture was injected for LC-MS/MS analysis. (Behnam J T, Williams E L, Brink S, Rumsby G, Danpure C J., “Reconstruction of human hepatocyte glyoxylate metabolic pathways in stably transformed Chinese-hamster ovary cells”, Biochem J. 2006 Mar. 1; 394 (Pt 2):409-16.)

The target in assay [2] is T1, GO. The experiment in a line: GO Enzymatic Assay (Assay 1). Format: biochemical. Set-up: purchased Novus Biologicals NBP1-72412. On the procedure:
Assay 1: GO Enzymatic Assay
GO was incubated with its substrate, glycolate, in 50 mM potassium phosphate buffer, pH 7. […] The enzyme was optimized and the kinetics was determined.
Compound inhibition was determined by adding various concentrations of inhibitors in the GO enzyme assay. The IC50 value for each measured compound was generated from sigmoidal dose-response (variable slope) curves with GraphPad Prism software (GraphPad Software, Inc., San Diego, Calif.) using the percent inhibition of GO activity relative to DMSO control.

Setting [3] is: Table 4, class symbols without asterisk, GO Enzymatic Assay (Assay 1), read-out: Range.

SMILES strings stand for the structures. Some results are limits rather than exact numbers.

Consider `OCc1[nH]nnc1Sc1ccc(-c2ccc(OC(F)(F)F)cc2)cc1` [Compound 497, (4-((4′-(trifluoromethoxy)-[1,1′-biphenyl]-4-yl)thio)-1H-1,2,3-triazol-5-yl)methanol], for which, in assay [1], the IC50 is above 10000 nM.
The same measure, in the same setting: then `OCc1[nH]nnc1SC1CCN(c2cc(Cl)cc(Cl)c2)CC1` [Compound 495, (4-((1-(3,5-dichlorophenyl)piperidin-4-yl)thio)-1H-1,2,3-triazol-5-yl)methanol], with above 10000 nM.
Same read-out and setting: the same measure for `OCc1[nH]nnc1OC1CCN(c2cc(Cl)cc(Cl)c2)CC1` [Compound 494, (4-((1-(3,5-dichlorophenyl)piperidin-4-yl)oxy)-1H-1,2,3-triazol-5-yl)methanol]: 5000 to 10000 nM; for `CC(C)OC(=O)OCOC(=O)c1[nH]nnc1O[C@H]1CC[C@H](c2ccc(OC(F)(F)F)cc2)CC1` [Compound 302, ((isopropoxycarbonyl)oxy)methyl 4-(((trans)-4-(4-(trifluoromethoxy)phenyl)cyclohexyl)oxy)-1H-1,2,3-triazole-5-carboxylate]: below 1000 nM.
Same read-out and setting: the same measure for `OCc1[nH]nnc1Oc1ccc(-c2ccc(Cl)cc2)cc1` [Compound 493-2, (4-((4′-chloro-[1,1′-biphenyl]-4-yl)oxy)-1H-1,2,3-triazol-5-yl)methanol]: 1000 to 5000 nM.
As for `N#Cc1ccc([C@H]2C[C@H](Oc3nn[nH]c3C(=O)O)C2)cc1` [Compound 404, 4-((trans)-3-(4-cyanophenyl)cyclobutoxy)-1H-1,2,3-triazole-5-carboxylic acid 2,2,2-trifluoroacetate], the IC50 in assay [2] (setting [3]) was below 100 nM.
Same read-out and setting: the same measure for `O=C(O)c1[nH]nnc1S[C@H]1CC[C@H](c2ccc(N3CCCCC3)cc2)CC1` [Compound 432, 4-(((trans)-4-(4-(piperidin-1-yl)phenyl)cyclohexyl)thio)-1H-1,2,3-triazole-5-carboxylic acid 2,2,2-trifluoroacetate]: below 100 nM.
With `O=C(OC1CC1)c1[nH]nnc1Oc1ccc2cc(Br)ccc2c1` [Compound 110, cyclopropyl 4-((6-bromonaphthalen-2-yl)oxy)-1H-1,2,3-triazole-5-carboxylate], the IC50 in assay [1] is 1000 to 5000 nM.
As to `O=C(O)c1[nH]nnc1O[C@H]1CC[C@H](c2ccc(-c3nnco3)cc2)CC1` [Compound 433, 4-(((trans)-4-(4-(1,3,4-oxadiazol-2-yl)phenyl)cyclohexyl)oxy)-1H-1,2,3-triazole-5-carboxylic acid], the IC50 in assay [2] (setting [3]) is below 100 nM.
On to `O=C(O)c1[nH]nnc1O[C@H]1CC[C@H](c2ccc3ncccc3c2)CC1` [Compound 409, 4-(((trans)-4-(quinolin-6-yl)cyclohexyl)oxy)-1H-1,2,3-triazole-5-carboxylic acid 2,2,2-trifluoroacetate], for which the IC50 in assay [2] (setting [3]) was below 100 nM.
The same measure, in the same setting: the same measure for `O=C(O)c1[nH]nnc1O[C@H]1CC[C@H](c2ccc(OC(F)(F)F)c(Cl)c2)CC1` [Compound 419, 4-(((trans)-4-(3-chloro-4-(trifluoromethoxy)phenyl)cyclohexyl)oxy)-1H-1,2,3-triazole-5-carboxylic acid]: below 100 nM.
Still for that read-out and setting: then `O=C(O)c1[nH]nnc1O[C@H]1CC[C@H](c2ccc(-n3cnnc3)cc2)CC1` [Compound 403, 4-(((trans)-4-(4-(4H-1,2,4-triazol-4-yl)phenyl)cyclohexyl)oxy)-1H-1,2,3-triazole-5-carboxylic acid], with below 100 nM; and `N#Cc1ccc([C@H]2C[C@H](Sc3nn[nH]c3C(=O)O)C2)cc1` [Compound 420, 4-(((trans)-3-(4-cyanophenyl)cyclobutyl)thio)-1H-1,2,3-triazole-5-carboxylic acid 2,2,2-trifluoroacetate], with below 100 nM; and `O=C(O)c1[nH]nnc1O[C@H]1CC[C@H](c2ccc(-c3nncs3)cc2)CC1` [Compound 431, 4-(((trans)-4-(4-(1,3,4-thiadiazol-2-yl)phenyl)cyclohexyl)oxy)-1H-1,2,3-triazole-5-carboxylic acid 2,2,2-trifluoroacetate], with below 100 nM.
Still for that read-out and setting: the same measure for `N#Cc1ccc(Oc2nn[nH]c2C(=O)O)cc1OCc1ccc(F)cc1` [Compound 390, 4-(4-cyano-3-((4-fluorobenzyl)oxy)phenoxy)-1H-1,2,3-triazole-5-carboxylic acid]: below 100 nM.
As to `O=C(O)c1[nH]nnc1SC1CCN(c2cc(Cl)ccc2OC(F)(F)F)CC1` [Compound 386, 4-((1-(5-chloro-2-(trifluoromethoxy)phenyl)piperidin-4-yl)thio)-1H-1,2,3-triazole-5-carboxylic acid 2,2,2-trifluoroacetate], in assay [2] (setting [3]), the IC50 was below 100 nM.
On the same count and under the same terms, the same measure for `O=C(O)c1[nH]nnc1O[C@H]1CC[C@H](c2ccc(-c3nnc[nH]3)cc2)CC1` [Compound 425, 4-(((trans)-4-(4-(4H-1,2,4-triazol-3-yl)phenyl)cyclohexyl)oxy)-1H-1,2,3-triazole-5-carboxylic acid]: below 100 nM; for `O=C(O)c1[nH]nnc1COC1CCN(c2cc(Cl)ccc2Cl)CC1` [Example 481, 4-(((1-(2,5-dichlorophenyl)piperidin-4-yl)oxy)methyl)-1H-1,2,3-triazole-5-carboxylic acid]: 100 to 1000 nM.
Same read-out and setting: then `O=C(O)c1[nH]nnc1O[C@H]1CC[C@H](c2ccc(C(=O)N3CCCCC3)cc2)CC1` [Compound 417, 4-(((trans)-4-(4-(piperidine-1-carbonyl)phenyl)cyclohexyl)oxy)-1H-1,2,3-triazole-5-carboxylic acid 2,2,2-trifluoroacetate], with below 100 nM; and `O=C(O)c1[nH]nnc1Sc1cccc(OC2CCCCC2)c1` [Compound 382, 4-((3-(cyclohexyloxy)phenyl)thio)-1H-1,2,3-triazole-5-carboxylic acid 2,2,2-trifluoroacetate], with 100 to 1000 nM; and `N#Cc1ccc(-c2ccc(Oc3nn[nH]c3C(=O)O)cc2Cl)cc1` [Compound 394, 4-((2-chloro-4′-cyano-[1,1′-biphenyl]-4-yl)oxy)-1H-1,2,3-triazole-5-carboxylic acid], with below 100 nM.
Turning to `O=C(O)c1[nH]nnc1Oc1ccc(-c2ccc(Cl)cc2)c(OCC2CCCC2)c1` [Compound 387, 4-((4′-chloro-2-(cyclopentylmethoxy)-[1,1′-biphenyl]-4-yl)oxy)-1H-1,2,3-triazole-5-carboxylic acid 2,2,2-trifluoroacetate], the IC50 in assay [2] (setting [3]) is below 100 nM.
`C[N+](C)(C)CCOC(=O)c1[nH]nnc1Sc1ccc(-c2ccc(OC(F)(F)F)cc2)cc1` [Compound 38, N,N,N-trimethyl-2-((4-((4′-(trifluoromethoxy)-[1,1′-biphenyl]-4-yl)thio)-1H-1,2,3-triazole-5-carbonyl)oxy)ethan-1-aminium iodide]: the IC50 in assay [2] (human GO, glycolate substrate, pH 7, percent inhibition relative to DMSO control, read-out: Range of IC50 values calculated from the enzymatic assays (Assay 1)) is 1000 to 10000 nM.
With `O=C(O)c1[nH]nnc1S[C@H]1CC[C@H](c2cc(Cl)ccc2OC(F)(F)F)CC1` [Compound 430, 4-(((trans)-4-(5-chloro-2-(trifluoromethoxy)phenyl)cyclohexyl)thio)-1H-1,2,3-triazole-5-carboxylic acid], the IC50 in assay [2] (setting [3]) is below 100 nM.
For `CN(C)C(=O)c1ccc([C@H]2CC[C@H](Oc3nn[nH]c3C(=O)O)CC2)cc1` [Compound 414, 4-(((trans)-4-(4-(dimethylcarbamoyl)phenyl)cyclohexyl)oxy)-1H-1,2,3-triazole-5-carboxylic acid 2,2,2-trifluoroacetate], in assay [2] (setting [3]), the IC50 is below 100 nM.
The same measure, in the same setting: then `O=C(O)c1[nH]nnc1Oc1cccc(OC2CCCCC2)c1` [Compound 380, 4-(3-(cyclohexyloxy)phenoxy)-1H-1,2,3-triazole-5-carboxylic acid 2,2,2-trifluoroacetate], with below 100 nM.

The values are drawn from US20230088214A1, “GLYCOLATE OXIDASE INHIBITORS FOR THE TREATMENT OF DISEASE” (BIOMARIN PHARMACEUTICAL INC., priority 2019, published 2023).
